This is an account of results in PubChem BioAssay (NCI).

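Grown in 96-well plates, cells were treated for 48 hours with each compound at five concentrations. Insufficient inhibition: endpoint recorded as highest concentration tested. Abbreviation: GI50, concentration required for 50% inhibition of growth. TGI denotes the concentration required for complete inhibition of growth.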

What all share (assay): DTP human tumour cell line panel, 48 h
In assay [1] the test system is 786-0 renal.
In assay [2] the test system is BT-549 breast.
The subject of assay [3] is HCT-15 colon.
In assay [4] the test system is HOP-92 NSCLC.
Assay [5] relates to MALME-3M melanoma.
The subject of assay [6] is MOLT-4 leukemia.
Assay [7] relates to OVCAR-5 ovarian.
The subject of assay [8] is SF-268 CNS.
For assay [9], the system named is TK-10 renal.
The subject of assay [10] is U251 CNS.

On to `CNCCCn1c2c(c3ccc(F)cc3c1=O)C(=O)c1cc(OC)cnc1-2`, for which the 50% growth inhibitory concentration (GI50) – broadly, the concentration giving 50% growth inhibition – in assay [1] was 0.195 µM; in assay [2], 0.577 µM; in assay [3] it was 0.25 µM; in assay [4], 0.371 µM; in assay [5], 0.318 µM; in [6] it was 0.0379 µM. Further, the GI50 in assay [7] was 0.352 µM; in assay [8], 0.379 µM; in assay [9], 0.332 µM; in assay [10], 0.11 µM. Further, the total growth inhibition concentration (TGI) – broadly, the concentration giving total growth inhibition – in assay [1] amounted to 0.658 µM; in [2], 4.84 µM; in assay [3], 3.86 µM; in [4], 3.15 µM; in [5] it was 1.55 µM; in assay [6], 0.318 µM. Besides, the TGI in assay [7] stood at 1.87 µM; in [8], 3.55 µM; in assay [9] it was 1.79 µM; in [10], 0.46 µM.
With `O=C(Nc1cccc(-n2cc(-c3ccncc3)c(-c3ccc(O)c(Cl)c3)n2)c1)c1ccc(Cl)c(Cl)c1`, the GI50 in assay [1] was 5.49 µM; in assay [2], 10.4 µM; in assay [3], 3.2 µM; in assay [4] it was 2.33 µM; in assay [5] it was 3.58 µM; in assay [6] it was 7.19 µM. Further, the GI50 in assay [7] was 39.5 µM; in assay [8], 36.9 µM; in [9] it was 43.2 µM; in assay [10] it was 4.03 µM. The TGI in assay [1] is 94.3 µM; in assay [2], over 100 µM; in assay [3] it was over 100 µM; in assay [4], 28.4 µM; in assay [5], 21 µM; in assay [6] it was over 100 µM. In addition, the TGI is over 100 µM in [7], over 100 µM in assay [8], over 100 µM in [9] and 34.2 µM in [10].
Turning to `Nc1cc2nc3ccccc3oc-2cc1=O`, the GI50 in assay [1] was 20.7 µM; in assay [2], 1.54 µM; in [3] it was 0.641 µM; in [4], over 45 µM; in assay [5], 1.67 µM; in [6], 10.1 µM. For the same compound, the GI50 was 2.41 µM in assay [7], 4.85 µM in assay [8], 14.3 µM in assay [9] and 1.73 µM in [10]. Besides, the TGI in [1] was over 83.4 µM; in assay [2], 3.53 µM; in assay [4], over 100 µM; in assay [5], 3.63 µM; in [6] it was over 63.2 µM; in assay [7], 5.79 µM. The figures for the TGI in [8], in assay [9] and in assay [10] were over 57.2 µM, 39.7 µM and 12.3 µM, respectively.
For `C[C@]12CC[C@@H]3c4ccc(O)cc4CC[C@H]3[C@@H]1CC[C@@H]2NS(=O)(=O)c1ccc2ccccc2c1`, the GI50 was 2.96 µM in [1]; 2.92 µM in assay [2]; 2.89 µM in assay [3]; 1.83 µM in [4]; 2.56 µM in assay [5]; 3.37 µM in assay [6]. Moreover, the GI50 in [7] is 3.4 µM; in [8] it was 3.68 µM; in assay [9], 3.52 µM; in [10] it was 3.6 µM. For the same compound, the TGI in assay [1] is 8.9 µM; in assay [2], 8.59 µM; in assay [3] it was 10.5 µM; in assay [4], 7.14 µM; in assay [5] it was 8.06 µM; in assay [6] it was over 100 µM. For the same compound, the total growth inhibition concentration (TGI) in [7] came out at 13.4 µM; in [8] it was 18.4 µM; in assay [9] it was 12.8 µM; in assay [10], 15.4 µM.
For `COC(=O)[C@@H](OC)[C@@H]1Cc2cc3cc(OC4CC(OC5CC(O)C(O)C(C)O5)C(O)C(C)O4)c(C)c(O)c3c(O)c2C(=O)[C@H]1OC1CC(OC2CC(OC3CC(C)(O)C(O)C(C)O3)C(O)C(C)O2)C(O)C(C)O1` (stereo partly drawn), the concentration for 50% growth inhibition (GI50) was 0.0302 µM in assay [1]; 0.0186 µM in [2]; 0.0575 µM in assay [3]; 0.0365 µM in [4]; 0.034 µM in assay [5]; 0.0453 µM in assay [6]. Besides, the 50% growth inhibitory concentration (GI50) is 0.0524 µM in [7], 0.0455 µM in assay [8], 0.0438 µM in [9] and 0.0385 µM in assay [10]. Also, the total growth inhibition concentration (TGI) in [1] was over 16.5 µM; in [2], 0.0974 µM; in assay [3], over 16.5 µM; in assay [4], 0.119 µM; in [5], 0.0839 µM; in assay [7], over 16.5 µM. The TGI is over 7.49 µM in assay [8], over 16.5 µM in assay [9] and over 16.5 µM in [10].
In the case of `O=Nc1c(O)c2ccccc2c2ccccc12`, the GI50 in [1] was 2.84 µM; in [2], 1.25 µM; in [3] it was 0.398 µM; in assay [4], 2.32 µM; in assay [5] it was 1.47 µM; in assay [6] it was 2.13 µM. Further, the GI50 in assay [7] is 1.94 µM; in assay [8], 1.43 µM; in assay [9], 2.7 µM; in [10] it was 0.496 µM. Besides, the TGI in assay [1] is 7.04 µM; in [2], 2.55 µM; in [3] it was 2.4 µM; in assay [4], 4.57 µM; in assay [5], 3.03 µM; in assay [6] it was over 100 µM. Also, the TGI was 4.53 µM in [7], 3.75 µM in assay [8], 7.9 µM in assay [9] and 2.09 µM in [10].
For the compound `NCCN1C(=O)c2ccccc2C1(O)c1ccc(Cl)cc1` (stereo not drawn), the TGI in [1] was 30.9 µM; in assay [2], over 100 µM; in [3], over 100 µM; in assay [4], 34.4 µM; in assay [5], 27.2 µM; in assay [6] it was 38.8 µM. Moreover, the concentration for total growth inhibition (TGI) in assay [7] turned out to be 39.8 µM; in [8] it was 57.1 µM; in assay [9] it was 36.1 µM; in [10] it was 29.6 µM.
As to `COc1cc(C2C3=C(COC3=O)Nc3cc4c(cc32)OCO4)cc2c1OCO2` (stereo not drawn), the concentration for 50% growth inhibition (GI50) in assay [1] was 0.138 µM; in assay [2] it was 1.66 µM; in assay [3] it was 0.109 µM; in assay [4] it was 3.24 µM; in [5], over 100 µM; in assay [6] it was 0.123 µM. Further, the GI50 in assay [7] is 1.09 µM; in assay [8] it was 0.0834 µM; in [9] it was 0.295 µM; in [10], 0.111 µM. In addition, the concentration for total growth inhibition (TGI) in assay [1] is over 100 µM; in [2] it was over 100 µM; in assay [3], over 100 µM; in [4], over 93.3 µM; in [5] it was over 100 µM; in [6], over 100 µM. For the same compound, the TGI in [7], in [8], in assay [9] and in [10] was over 100 µM throughout.
